Measurements: patent publication US20260009085A1, “METHODS AND COMPOSITIONS FOR THE DIAGNOSIS AND TREATMENT OF CANCER” (Chengdu Anticancer Bioscience, Ltd., priority 2023, published 2026)

Columns and labels:
[1] = tested on: NCI-H23 cells; experiment: Immunofluorescent analysis of AURKB mis-localization (6 hours) and polyploidy (72 hours); format: cell-based, human; conditions: 6 hours or 72 hours
Description: The proportion of cells with AURKB mis-localization was measured to assess the function of MKLP2 (FIG. 3C). Immunofluorescent analysis of localization of kinetochore proteins AURKB and CREST was determined. Scale bar=10 μm. FIG. 3D is an immunoblot depicting the results of an experiment in which NCI-H23 cells were transiently transfected with MKLP2 siRNA. MKLP2 knockdown efficiency was assayed by immunoblot blot analysis 72 hours after transfection. FIG. 3E are graphs depicting the proportion of cells with AURKB mis-localization after treatment with MKLP2 siRNA after 6 hours of exposure and the proportion of polyploid cells after 72 hours.
Compounds were considered positive for the induction of polyploidy when the percentage of polyploid cells in the interphase population, was ≥5% (with deduction of basal level of polyploid cells) at 72 hours after initiation of treatment (FIG. 3A right panel, FIG. 3B right panel, and FIG. 3E right panel). Polyploid cells were defined as those with multinucleated nuclei, visible upon DAPI staining. The basal level of spontaneous polyploid cells with the screening cell line was less than 1%.
Immunofluorescent (IF) analysis was used to assess enzymatic activity (FIG. 3A left panel, FIG. 3B left panel, and FIG. 3E left panel) and localization of mitotic regulators. […]

[2] = tested on: RPE-MYC; experiment: Model cell screen: CPPC complex localization and cell death, RPE-MYC; format: cell-based, human
Description: In the model screening cell lines, there was an indistinguishable threshold concentration of approximately 20 nM, which was required to show disruption of the CPPC complex by IHC at the spindle midzone and equatorial cortex of anaphase cells, indicating a failure in CPPC relocation. This similarity in the threshold effective concentration for target inhibition is, therefore, not influenced by overexpression of MYC. […] Similar data with other MYC-SL compounds were observed.

`CNC(=O)c1cc(OC)cc(Oc2ncccc2-c2ccnc(C)c2)c1` [LG157] was tested, and the “mitotic defects (AURKB mis-localization, polyploidy)” value [1] was “elicit mitotic defects similar to those seen in cells treated with a known mitotic disruptor, paprotrain”, the cell death [2] was “extensive cell death occurred in RPE-MYC” and the “threshold concentration required to show disruption of the CPPC complex” value ([2]; IHC at spindle midzone and equatorial cortex of anaphase cells) was “approximately 20 nM”.
